From patent publication US12629452B2, “Cranial suture regeneration” (University of Southern California, priority 2021, dated 2026) come the findings set out here.

Each structure is given as a SMILES string.

The subject of the test is suture mesenchymal cells. Put plainly: Western blot of Runx2 and OPN (osteogenic differentiation). The note with it: 20 μM Wnt agonist 1 or 100 nM LY2090314, one or two weeks, vs vehicle. The format is cell-based, mouse. On the procedure: Suture mesenchymal cells from one-month-old C57BL/6J mice were cultured with 20 μM Wnt agonist 1 (Selleck, S8178) or 100 nM LY2090314 (Selleck, S7063) for one or two weeks in αMEM. Medium was changed every other day. Total protein was extracted using a solution of loading buffer (Cell Signaling Technology, 7723S), protease inhibitor (Thermo Fisher Scientific, 1861278) and DTT (Cell Signaling Technology, 7723S), then separated by 10% SDS-PAGE and transferred to PVDF membranes (Millipore, ISEQ00005). Membranes were blocked with 5% non-fat dry milk dissolved in TBST for 2 hours at room temperature with gentle shaking, and then incubated with primary antibodies: anti-Runx2 (Cell signaling technology 12556, 1:1000), anti-OPN (Abcam ab63856, 1:500), and anti-βactin (Abcam ab20272, 1:1000) at 4° C. overnight followed by corresponding horseradish-peroxidase (HRP)-conjugated secondary antibodies. Protein expression was detected by Bio-Rad ChemiDoc Touch (Bio-Rad) and intensities of bands were quantitated by Image J software.
For orientation: A western blot detects proteins with antibodies after separation by electrophoresis.

Consider `COc1cccc(-c2cc(NCc3ccc4c(c3)OCO4)nc(N)n2)c1` [Wnt agonist 1], for which the OPN expression level result is listed as “significantly increased” and the Runx2 expression level entry is “significantly increased”.
With `O=C1NC(=O)C(c2cnc3ccccn23)=C1c1cn2c3c(cc(F)cc13)CN(C(=O)N1CCCCC1)CC2` [LY2090314], the OPN expression level result is given as “significantly increased” and the Runx2 expression level result was “significantly increased”.
